Reference: patent US20240417387A1, “SULFONYLPIPERAZINYL COMPOUNDS FOR TREATMENT OF BACTERIAL INFECTIONS” (Hoffmann-La Roche Inc., priority 2021, published 2024)
Converted amounts (≈) assume the structure as drawn.

Columns and labels:
[1] = test system: Klebsiella pneumonia ATCC 43816; assay: Minimal Inhibitory Concentration (MIC) broth dilution assay, K. pneumonia ATCC 43816; assay type: cell-based; details: Klebsiella pneumoniae, ATCC43816, 20 hours at 35° C., CAMHB, read-out: MIC K. p ATCC 43816
Procedure, shortened: (§1)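 Broth microdilution with twofold compound series in cation-adjusted Mueller Hinton broth, inoculum 5×10^5 CFU/mL, applied to each strain. Plates incubated 20 h at 35 °C in ambient air. MIC […] recorded as the lowest concentration with no visible growth, read by eye.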

[2] = Human microsome stability assay; assay type: in vitro ADME; details: human liver microsomes 0.5 mg/mL, 37° C., pH 7.4, NADPH regenerating system
Procedure, shortened: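 Compound […] with 0.5 mg/mL human liver microsomal protein in 100 mM potassium phosphate pH 7.4, 10 min preincubation at 37 °C, started with NADPH regenerating system. Sampled 0–30 min, remaining compound by LC-MS/MS; clearance binned low <7, medium 7–16.2, high >16.2 mL/min/kg.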

[3] = target: Escherichia coli UDP-2,3-diacylglucosamine hydrolase (LpxH) (Escherichia coli (strain K12), UniProt P43341); assay: Enzymatic IC50 assay of Escherichia coli LpxH (UMP/CMP-Glo luminescence); assay type: biochemical; details: Enzymatic IC50 against Escherichia coli LpxH; read-out: IC50 (converted)
Procedure, shortened: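 LpxH (2 nM) preincubated 10 min at room temperature with compound (100 μM to 1.7 nM) in Tris-HCl pH7.5 buffer with 2.5 mM MnCl2, then reacted with 5 μM UDP-DAG for 20 min. Reaction heat-stopped at 95° C.; released UMP converted to ATP and read by luciferase luminescence (UMP/CMP-Glo).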

[4] = test system: Escherichia coli ATCC 25922; assay: Minimal Inhibitory Concentration (MIC) broth dilution assay, E. coli ATCC 25922; assay type: cell-based; details: Escherichia coli, ATCC25922, 20 h, read-out: MIC E. coli ATCC 25922
Procedure, shortened: as §1

[5] = test system: Escherichia coli BW 25113; assay: Minimal Inhibitory Concentration (MIC) broth dilution assay, E. coli BW 25113; assay type: cell-based; details: Escherichia coli, BW25113, 20 hours at 35° C., CAMHB, read-out: MIC E. coli K-12 BW 25113
Procedure, shortened: as §1

Escherichia coli UDP-2,3-diacylglucosamine hydrolase (LpxH), sequence (P43341 whole entry): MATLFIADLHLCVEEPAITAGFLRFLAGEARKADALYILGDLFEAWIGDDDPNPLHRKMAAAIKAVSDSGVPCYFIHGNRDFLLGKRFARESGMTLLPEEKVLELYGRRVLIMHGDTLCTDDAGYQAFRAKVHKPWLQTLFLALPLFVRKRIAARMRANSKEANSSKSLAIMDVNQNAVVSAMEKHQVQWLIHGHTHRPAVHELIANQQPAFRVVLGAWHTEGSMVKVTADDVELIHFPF

SMILES	MIC [1]	Clearance of Human microsome [2]	IC50 [3]	MIC [4]	MIC [5]
CN(C)CCCNC(=O)c1ccc(C(F)(F)c2cc(Cl)nc(N3CCN(S(=O)(=O)c4ccc(N5C[C@H](N)CC5=O)cc4)CC3)c2)nc1 [Example 027, 6-[[2-chloro-6-[4-[4-[(4R)-4-amino-2-oxo-pyrrolidin-1-yl]phenyl]sulfonylpiperazin-1-yl]-4-pyridyl]-difluoro-methyl]-N-[3-(dimethylamino)propyl]pyridine-3-carboxamide]	3.2 µg/mL (≈ 4.63 µM)	6.15 mL/min/kg	5.79 nM	3.2 µg/mL (≈ 4.63 µM)	1.6 µg/mL (≈ 2.31 µM)
CNCCCNC(=O)c1ccc(C(F)(F)c2cc(Cl)nc(N3CCN(S(=O)(=O)c4ccc(N5C[C@H](N)CC5=O)cc4)CC3)c2)cn1 [Example 029, 5-[[2-chloro-6-[4-[4-[(4R)-4-amino-2-oxo-pyrrolidin-1-yl]phenyl]sulfonylpiperazin-1-yl]-4-pyridyl]-difluoro-methyl]-N-[3-(methylamino)propyl]pyridine-2-carboxamide]	1.4 µg/mL (≈ 2.07 µM)	7.22 mL/min/kg	2.95 nM	1.4 µg/mL (≈ 2.07 µM)	2.8 µg/mL (≈ 4.13 µM)
CN(CCN)C(=O)[C@H]1CC[C@H](C(F)(F)c2cc(Cl)nc(N3CCN(S(=O)(=O)c4ccc(N5C[C@H](N)CC5=O)cc4)CC3)c2)CC1 [Example 030, Trans-N-(2-aminoethyl)-4-[[2-chloro-6-[4-[4-[(4R)-4-amino-2-oxo-pyrrolidin-1-yl]phenyl]sulfonylpiperazin-1-yl]-4-pyridyl]-difluoro-methyl]-N-methyl-cyclohexanecarboxamide]	1.7 µg/mL (≈ 2.54 µM)	6.90 mL/min/kg	8.98 nM	1.1 µg/mL (≈ 1.65 µM)	1.7 µg/mL (≈ 2.54 µM)
NCCCNC(=O)[C@H]1CC[C@@H](C(F)(F)c2cc(Cl)nc(N3CCN(S(=O)(=O)c4ccc(N5C[C@H](N)CC5=O)cc4)CC3)c2)CC1 [Example 031]	2.2 µg/mL (≈ 3.29 µM)	6.15 mL/min/kg	7.48 nM	2.2 µg/mL (≈ 3.29 µM)	1.7 µg/mL (≈ 2.54 µM)
NCCCNC(=O)C12CCC(C(F)(F)c3cc(Cl)nc(N4CCN(S(=O)(=O)c5ccc(N6C[C@H](N)CC6=O)cc5)CC4)c3)(CC1)CC2 [Example 033, N-(3-aminopropyl)-4-[[2-chloro-6-[4-[4-[(4R)-4-amino-2-oxo-pyrrolidin-1-yl]phenyl]sulfonylpiperazin-1-yl]-4-pyridyl]-difluoro-methyl]bicyclo[2.2.2]octane-1-carboxamide]	0.43 µg/mL (≈ 0.619 µM)	10.77 mL/min/kg	5.76 nM	0.57 µg/mL (≈ 0.821 µM)	1.1 µg/mL (≈ 1.58 µM)
NCCCNC(=O)C12CCC(C(F)(F)c3cc(Cl)nc(N4CCN(S(=O)(=O)c5ccc(N6C[C@H](N)CC6=O)cc5)CC4)c3)(CC1)C2 [Example 034, N-(3-aminopropyl)-4-[[2-chloro-6-[4-[4-[(4R)-4-amino-2-oxo-pyrrolidin-1-yl]phenyl]sulfonylpiperazin-1-yl]-4-pyridyl]-difluoro-methyl]norbornane-1-carboxamide]	1.1 µg/mL (≈ 1.62 µM)	6.15 mL/min/kg	29.4 nM	1.1 µg/mL (≈ 1.62 µM)	1.7 µg/mL (≈ 2.5 µM)
NCC(O)CNC(=O)[C@H]1CC[C@H](C(F)(F)c2cc(Cl)nc(N3CCN(S(=O)(=O)c4ccc(N5C[C@H](N)CC5=O)cc4)CC3)c2)CC1 (stereo partly drawn) [Example 036, Trans-N-(3-amino-2-hydroxy-propyl)-4-[[2-chloro-6-[4-[4-[(4R)-4-amino-2-oxo-pyrrolidin-1-yl]phenyl]sulfonylpiperazin-1-yl]-4-pyridyl]-difluoro-methyl]cyclohexanecarboxamide]	1.1 µg/mL (≈ 1.61 µM)	6.15 mL/min/kg	5.85 nM	1.1 µg/mL (≈ 1.61 µM)	1.1 µg/mL (≈ 1.61 µM)
C[N+](C)(C)CCCNC(=O)c1ccc(C(F)(F)c2cc(Cl)nc(N3CCN(S(=O)(=O)c4ccc(N5C[C@H](N)CC5=O)cc4)CC3)c2)cc1 [Example 037]	1.5 µg/mL	6.66 mL/min/kg	< 2.84 nM	1.5 µg/mL	0.73 µg/mL
C[N+]1(CCCNC(=O)c2ccc(C(F)(F)c3cc(Cl)nc(N4CCN(S(=O)(=O)c5ccc(N6C[C@H](N)CC6=O)cc5)CC4)c3)cc2)CCCC1 [Example 038, 4-[[2-Chloro-6-[4-[4-[(4R)-4-amino-2-oxo-pyrrolidin-1-yl]phenyl]sulfonylpiperazin-1-yl]-4-pyridyl]-difluoro-methyl]-N-[3-(1-methylpyrrolidin-1-ium-1-yl)propyl]benzamide]	1.5 µg/mL	6.80 mL/min/kg	4.1 nM	1.5 µg/mL	1.5 µg/mL
N[C@@H]1CC(=O)N(c2ccc(S(=O)(=O)N3CCN(c4cc(C(F)(F)c5ccc(C(=O)NCCCNCCO)nc5)cc(Cl)n4)CC3)cc2)C1 [Example 039, 5-[[2-Chloro-6-[4-[4-[(4R)-4-amino-2-oxo-pyrrolidin-1-yl]phenyl]sulfonylpiperazin-1-yl]-4-pyridyl]-difluoro-methyl]-N-[3-(2-hydroxyethylamino)propyl]pyridine-2-carboxamide]	1.6 µg/mL (≈ 2.26 µM)	6.15 mL/min/kg	4.24 nM	1.6 µg/mL (≈ 2.26 µM)	0.82 µg/mL (≈ 1.16 µM)
NCCOCCNC(=O)[C@H]1CC[C@H](C(F)(F)c2cc(Cl)nc(N3CCN(S(=O)(=O)c4ccc(N5C[C@H](N)CC5=O)cc4)CC3)c2)CC1 [Example 042, Trans-N-[2-(2-aminoethoxy)ethyl]-4-[[2-chloro-6-[4-[4-[(4R)-4-amino-2-oxo-pyrrolidin-1-yl]phenyl]sulfonylpiperazin-1-yl]-4-pyridyl]-difluoro-methyl]cyclohexanecarboxamide]	2.3 µg/mL (≈ 3.29 µM)	11.12 mL/min/kg	11.5 nM	2.3 µg/mL (≈ 3.29 µM)	2.3 µg/mL (≈ 3.29 µM)
NCCN(CCN)C(=O)[C@H]1CC[C@H](C(F)(F)c2cc(Cl)nc(N3CCN(S(=O)(=O)c4ccc(N5C[C@H](N)CC5=O)cc4)CC3)c2)CC1 [Example 043]	1.1 µg/mL (≈ 1.58 µM)	9.94 mL/min/kg	35.9 nM	0.57 µg/mL (≈ 0.817 µM)	1.1 µg/mL (≈ 1.58 µM)
NCCCN(CCCN)C(=O)[C@H]1CC[C@H](C(F)(F)c2cc(Cl)nc(N3CCN(S(=O)(=O)c4ccc(N5C[C@H](N)CC5=O)cc4)CC3)c2)CC1 [Example 044, Trans-N,N-bis(3-aminopropyl)-4-[[2-chloro-6-[4-[4-[(4R)-4-amino-2-oxo-pyrrolidin-1-yl]phenyl]sulfonylpiperazin-1-yl]-4-pyridyl]-difluoro-methyl]cyclohexanecarboxamide]	1.2 µg/mL (≈ 1.65 µM)	7.30 mL/min/kg	48.3 nM	0.62 µg/mL (≈ 0.855 µM)	1.2 µg/mL (≈ 1.65 µM)
NCCCN(CCCN)C(=O)C12CCC(C(F)(F)c3cc(Cl)nc(N4CCN(S(=O)(=O)c5ccc(N6C[C@H](N)CC6=O)cc5)CC4)c3)(CC1)CC2 [Example 045, N,N-bis(3-aminopropyl)-4-[[2-chloro-6-[4-[4-[(4R)-4-amino-2-oxo-pyrrolidin-1-yl]phenyl]sulfonylpiperazin-1-yl]-4-pyridyl]-difluoro-methyl]bicyclo[2.2.2]octane-1-carboxamide]	0.62 µg/mL (≈ 0.825 µM)	8.79 mL/min/kg	18.6 nM	0.62 µg/mL (≈ 0.825 µM)	1.2 µg/mL (≈ 1.6 µM)
NCCN(CCN)CCCNC(=O)[C@H]1CC[C@H](C(F)(F)c2cc(Cl)nc(N3CCN(S(=O)(=O)c4ccc(N5C[C@H](N)CC5=O)cc4)CC3)c2)CC1 [Example 047]	0.3 µg/mL (≈ 0.398 µM)	6.15 mL/min/kg	6.63 nM	0.35 µg/mL (≈ 0.464 µM)	0.3 µg/mL (≈ 0.398 µM)
N[C@@H]1CC(=O)N(c2ccc(S(=O)(=O)N3CCN(c4cc(C(F)(F)[C@H]5CC[C@H](C(=O)N6C[C@H](N)C[C@H](N)C6)CC5)cc(Cl)n4)CC3)cc2)C1 [Example 048, Trans-(4R)-4-amino-1-[4-[4-[6-chloro-4-[[4-cis-(3,5-diaminopiperidine-1-carbonyl)cyclohexyl]-difluoro-methyl]-2-pyridyl]piperazin-1-yl]sulfonylphenyl]pyrrolidin-2-one]	1.2 µg/mL (≈ 1.69 µM)	12.06 mL/min/kg	18.3 nM	1.2 µg/mL (≈ 1.69 µM)	1.2 µg/mL (≈ 1.69 µM)
N[C@@H]1C[C@H](N)CN(CCCNC(=O)[C@H]2CC[C@H](C(F)(F)c3cc(Cl)nc(N4CCN(S(=O)(=O)c5ccc(N6C[C@H](N)CC6=O)cc5)CC4)c3)CC2)C1 [Example 049, Trans-4-[[2-chloro-6-[4-[4-[(4R)-4-amino-2-oxo-pyrrolidin-1-yl]phenyl]sulfonylpiperazin-1-yl]-4-pyridyl]-difluoro-methyl]-N-[3-[cis-3,5-diamino-1-piperidyl]propyl]cyclohexanecarboxamide]	1.2 µg/mL (≈ 1.57 µM)	7.38 mL/min/kg	9.13 nM	1.2 µg/mL (≈ 1.57 µM)	0.6 µg/mL (≈ 0.783 µM)
